Experimental data reported in patent US20060094020A1, “Methods and compositions for determining resistance or susceptibility of HIV-1 to stavudine” (priority 2004, published 2006).

System: HIV-1 (patient-derived viruses comprising the K65R mutation in RT)
Assay: Resistance test vector (PHENOSENSE) phenotypic drug susceptibility assay, luciferase readout, single round of replication in 293 cells
Type: cell-based
Settings: 1.7 fold is the threshold for d4T resistance
Experimental: In preferred embodiments, the phenotypic analysis of d4T resistance or susceptibility is performed using PHENOSENSE™ (ViroLogic Inc., South San Francisco, Calif.). See Petropoulos et al., 2000, Antimicrob. Agents Chemother. 44:920-928; U.S. Pat. Nos. 5,837,464 and 6,242,187. PHENOSENSE™ is a phenotypic assay that achieves the benefits of phenotypic testing and overcomes the drawbacks of previous assays. Because the assay has been automated, PHENOSENSE™ provides high throughput methods under controlled conditions for determining replication capacity of a large number of individual viral isolates.
The assay can be performed by first co-transfecting host cells with RTV DNA and a plasmid that expresses the envelope proteins of another retrovirus, for example, amphotropic murine leukemia virus (MLV). Following transfection, viral particles can be harvested from the cell culture and used to infect fresh target cells in the presence of varying amounts of anti-viral drug(s). The completion of a single round of viral replication in the fresh target cells can be detected by the means for detecting replication contained in the vector. […] The susceptibility of an HIV, or population of HIV, can be determined by measuring the concentration of antiviral drug at which the luciferase activity detected is half-maximal. […]

Cc1cn([C@H]2C=C[C@@H](CO)O2)c(=O)[nH]c1=O [d4T, stavudine]
IC50 fold higher than wild-type (most of the viruses comprising only the K65R mutation in RT (202 viruses)): less than 1.7 fold
IC50 fold higher than wild-type (some of the viruses comprising only the K65R mutation in RT (202 viruses)): greater than 1.7 fold
